Experimental data from ChEMBL document CHEMBL5505966, “Synthesis and pharmacological characterization of conformationally restricted 2-amino-Adipic acid analogs and carboxycyclopropyl glycines as selective metabotropic glutamate 2 receptor agonists” (Eur J Med Chem, 2024).
Active and inactive are the calls of the source. The calls are words filed in the database; no cut-off is given here.

Experiments:
[1] = molecular target: Metabotropic glutamate receptor 3 (Rattus norvegicus) (UniProt P31422); experiment: Agonist activity at rat mGluR3 receptor expressed in HEK293 cells at 100 uM by IP-1 HTRF assay; assay type: functional, cell-based
Sequence of Metabotropic glutamate receptor 3 (Rattus norvegicus) (P31422 23-879 limits assumed): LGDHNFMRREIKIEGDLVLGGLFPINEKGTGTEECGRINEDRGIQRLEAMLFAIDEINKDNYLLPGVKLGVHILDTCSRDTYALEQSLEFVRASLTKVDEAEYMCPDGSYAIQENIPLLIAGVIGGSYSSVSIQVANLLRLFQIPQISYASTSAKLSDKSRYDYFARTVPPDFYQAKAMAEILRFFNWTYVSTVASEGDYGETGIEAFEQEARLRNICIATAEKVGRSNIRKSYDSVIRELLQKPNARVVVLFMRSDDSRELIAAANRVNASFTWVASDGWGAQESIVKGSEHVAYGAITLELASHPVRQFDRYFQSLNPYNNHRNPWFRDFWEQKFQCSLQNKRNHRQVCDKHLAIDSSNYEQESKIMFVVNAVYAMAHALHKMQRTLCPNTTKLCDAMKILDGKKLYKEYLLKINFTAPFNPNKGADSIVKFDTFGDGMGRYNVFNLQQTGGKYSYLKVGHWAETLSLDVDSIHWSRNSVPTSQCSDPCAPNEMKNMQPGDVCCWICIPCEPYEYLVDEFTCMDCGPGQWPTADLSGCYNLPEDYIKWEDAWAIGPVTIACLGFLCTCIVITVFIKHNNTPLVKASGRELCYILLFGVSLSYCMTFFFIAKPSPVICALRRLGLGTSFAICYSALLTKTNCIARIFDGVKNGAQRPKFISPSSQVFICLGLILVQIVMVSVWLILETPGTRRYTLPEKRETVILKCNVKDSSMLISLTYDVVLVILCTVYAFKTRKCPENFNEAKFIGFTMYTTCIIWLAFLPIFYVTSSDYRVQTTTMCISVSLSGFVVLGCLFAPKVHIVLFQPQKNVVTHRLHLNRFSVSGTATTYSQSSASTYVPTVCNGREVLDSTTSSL

[2] = molecular target: Metabotropic glutamate receptor 1 (Rattus norvegicus) (UniProt P23385); experiment: Antagonist activity at rat mGluR1 receptor expressed in HEK293 cells by IP-1 HTRF assay; assay type: functional, cell-based
Sequence of Metabotropic glutamate receptor 1 (Rattus norvegicus) (P23385 19-1199 limits assumed): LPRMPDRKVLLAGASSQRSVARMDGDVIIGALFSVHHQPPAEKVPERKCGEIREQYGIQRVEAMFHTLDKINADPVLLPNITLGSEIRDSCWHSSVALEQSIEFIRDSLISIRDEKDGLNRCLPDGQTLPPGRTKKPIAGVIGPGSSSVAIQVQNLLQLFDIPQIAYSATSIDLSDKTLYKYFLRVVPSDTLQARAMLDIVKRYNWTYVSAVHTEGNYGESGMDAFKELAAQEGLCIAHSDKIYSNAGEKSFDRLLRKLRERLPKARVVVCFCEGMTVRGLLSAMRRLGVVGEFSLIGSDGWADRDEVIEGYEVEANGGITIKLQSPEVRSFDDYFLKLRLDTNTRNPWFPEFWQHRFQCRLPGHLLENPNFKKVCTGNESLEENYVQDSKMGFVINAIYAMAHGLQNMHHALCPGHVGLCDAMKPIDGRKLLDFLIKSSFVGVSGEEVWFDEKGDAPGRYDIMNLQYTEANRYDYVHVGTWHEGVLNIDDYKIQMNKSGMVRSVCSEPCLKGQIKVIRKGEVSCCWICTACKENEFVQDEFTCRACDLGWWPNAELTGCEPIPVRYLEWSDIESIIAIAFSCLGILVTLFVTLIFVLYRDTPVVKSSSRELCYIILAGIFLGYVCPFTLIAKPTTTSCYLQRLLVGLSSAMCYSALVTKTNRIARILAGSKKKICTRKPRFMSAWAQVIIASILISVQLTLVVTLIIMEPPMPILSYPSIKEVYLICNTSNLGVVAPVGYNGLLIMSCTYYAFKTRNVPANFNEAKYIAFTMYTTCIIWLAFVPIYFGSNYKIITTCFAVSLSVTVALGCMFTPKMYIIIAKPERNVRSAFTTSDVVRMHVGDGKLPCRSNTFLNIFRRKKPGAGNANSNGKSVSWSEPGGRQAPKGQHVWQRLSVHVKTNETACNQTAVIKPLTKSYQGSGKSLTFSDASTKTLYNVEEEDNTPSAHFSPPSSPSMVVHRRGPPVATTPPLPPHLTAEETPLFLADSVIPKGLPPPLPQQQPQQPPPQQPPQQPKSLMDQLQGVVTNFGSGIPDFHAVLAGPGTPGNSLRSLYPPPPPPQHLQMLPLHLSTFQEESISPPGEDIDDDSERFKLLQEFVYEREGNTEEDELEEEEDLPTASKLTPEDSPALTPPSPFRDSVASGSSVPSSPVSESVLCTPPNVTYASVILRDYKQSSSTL

[3] = molecular target: Metabotropic glutamate receptor 7 (Rattus norvegicus) (UniProt P35400); experiment: Agonist activity at rat mGluR7 receptor expressed in HEK293 cells at 100 uM by IP-1 HTRF assay; assay type: functional, cell-based
[4] = molecular target: Metabotropic glutamate receptor 8 (Rattus norvegicus) (UniProt P70579); experiment: Antagonist activity at rat mGluR8 receptor expressed in HEK293 cells by IP-1 HTRF assay; assay type: functional, cell-based
Sequence of Metabotropic glutamate receptor 8 (Rattus norvegicus) (P70579 whole entry): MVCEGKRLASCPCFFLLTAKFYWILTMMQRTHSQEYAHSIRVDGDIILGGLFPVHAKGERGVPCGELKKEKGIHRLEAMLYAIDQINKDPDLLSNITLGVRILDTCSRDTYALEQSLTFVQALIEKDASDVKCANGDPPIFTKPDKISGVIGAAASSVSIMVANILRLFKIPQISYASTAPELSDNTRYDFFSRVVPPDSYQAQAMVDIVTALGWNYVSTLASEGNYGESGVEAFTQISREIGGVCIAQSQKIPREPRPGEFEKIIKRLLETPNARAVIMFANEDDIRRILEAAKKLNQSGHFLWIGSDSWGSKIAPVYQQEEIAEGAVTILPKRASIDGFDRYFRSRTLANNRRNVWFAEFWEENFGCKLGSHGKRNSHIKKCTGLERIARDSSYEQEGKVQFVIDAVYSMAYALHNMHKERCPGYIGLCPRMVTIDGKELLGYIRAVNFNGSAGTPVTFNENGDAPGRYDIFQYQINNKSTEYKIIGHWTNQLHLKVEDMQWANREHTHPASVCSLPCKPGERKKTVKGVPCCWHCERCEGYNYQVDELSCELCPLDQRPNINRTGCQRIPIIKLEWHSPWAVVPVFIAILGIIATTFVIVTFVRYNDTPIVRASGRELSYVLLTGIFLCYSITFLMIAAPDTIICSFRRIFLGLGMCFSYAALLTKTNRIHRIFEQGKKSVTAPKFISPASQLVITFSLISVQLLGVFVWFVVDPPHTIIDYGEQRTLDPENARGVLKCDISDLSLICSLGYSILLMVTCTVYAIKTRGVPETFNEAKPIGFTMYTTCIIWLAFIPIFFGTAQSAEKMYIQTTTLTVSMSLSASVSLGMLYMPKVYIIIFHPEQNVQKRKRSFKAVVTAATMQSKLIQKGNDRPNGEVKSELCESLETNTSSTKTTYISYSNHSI

[5] = molecular target: Metabotropic glutamate receptor 6 (Rattus norvegicus) (UniProt P35349); experiment: Agonist activity at rat mGluR6 receptor expressed in HEK293 cells at 100 uM by IP-1 HTRF assay; assay type: functional, cell-based
[6] = molecular target: Metabotropic glutamate receptor 3 (Rattus norvegicus) (UniProt P31422); experiment: Antagonist activity at rat mGluR3 receptor expressed in HEK293 cells by IP-1 HTRF assay; assay type: functional, cell-based
[7] = molecular target: Metabotropic glutamate receptor 1 (Rattus norvegicus) (UniProt P23385); experiment: Agonist activity at rat mGluR1 receptor expressed in HEK293 cells at 100 uM by IP-1 HTRF assay; assay type: functional, cell-based
[8] = molecular target: Metabotropic glutamate receptor 4 (Rattus norvegicus) (UniProt P31423); experiment: Antagonist activity at rat mGluR4 receptor expressed in HEK293 cells by IP-1 HTRF assay; assay type: functional, cell-based
Sequence of Metabotropic glutamate receptor 4 (Rattus norvegicus) (P31423 whole entry): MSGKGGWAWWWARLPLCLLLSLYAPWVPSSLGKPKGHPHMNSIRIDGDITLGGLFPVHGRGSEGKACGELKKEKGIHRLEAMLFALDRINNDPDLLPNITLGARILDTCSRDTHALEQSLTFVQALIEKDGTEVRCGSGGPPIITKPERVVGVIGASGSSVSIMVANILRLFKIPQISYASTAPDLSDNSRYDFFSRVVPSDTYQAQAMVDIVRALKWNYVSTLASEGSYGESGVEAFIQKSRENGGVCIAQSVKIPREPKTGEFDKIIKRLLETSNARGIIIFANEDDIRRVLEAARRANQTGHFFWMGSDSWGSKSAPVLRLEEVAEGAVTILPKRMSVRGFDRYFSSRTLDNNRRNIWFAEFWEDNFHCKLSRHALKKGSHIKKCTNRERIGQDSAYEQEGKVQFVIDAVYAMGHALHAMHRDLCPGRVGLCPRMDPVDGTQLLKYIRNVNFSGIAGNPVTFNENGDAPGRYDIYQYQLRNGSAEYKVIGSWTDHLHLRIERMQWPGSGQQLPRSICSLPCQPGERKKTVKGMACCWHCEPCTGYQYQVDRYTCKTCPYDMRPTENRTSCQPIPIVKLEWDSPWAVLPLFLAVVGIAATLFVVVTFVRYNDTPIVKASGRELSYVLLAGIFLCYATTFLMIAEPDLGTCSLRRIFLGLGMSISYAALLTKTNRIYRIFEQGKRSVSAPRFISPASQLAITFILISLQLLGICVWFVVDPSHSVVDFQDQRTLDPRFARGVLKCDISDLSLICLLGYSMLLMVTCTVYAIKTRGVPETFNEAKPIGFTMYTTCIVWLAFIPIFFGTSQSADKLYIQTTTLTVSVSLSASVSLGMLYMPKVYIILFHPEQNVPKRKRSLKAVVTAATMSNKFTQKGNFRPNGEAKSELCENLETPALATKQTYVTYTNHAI

[9] = molecular target: Metabotropic glutamate receptor 5 (Rattus norvegicus) (UniProt P31424); experiment: Antagonist activity at rat mGluR5 receptor expressed in HEK293 cells by IP-1 HTRF assay; assay type: functional, cell-based
Sequence of Metabotropic glutamate receptor 5 (Rattus norvegicus) (P31424 21-1203 limits assumed): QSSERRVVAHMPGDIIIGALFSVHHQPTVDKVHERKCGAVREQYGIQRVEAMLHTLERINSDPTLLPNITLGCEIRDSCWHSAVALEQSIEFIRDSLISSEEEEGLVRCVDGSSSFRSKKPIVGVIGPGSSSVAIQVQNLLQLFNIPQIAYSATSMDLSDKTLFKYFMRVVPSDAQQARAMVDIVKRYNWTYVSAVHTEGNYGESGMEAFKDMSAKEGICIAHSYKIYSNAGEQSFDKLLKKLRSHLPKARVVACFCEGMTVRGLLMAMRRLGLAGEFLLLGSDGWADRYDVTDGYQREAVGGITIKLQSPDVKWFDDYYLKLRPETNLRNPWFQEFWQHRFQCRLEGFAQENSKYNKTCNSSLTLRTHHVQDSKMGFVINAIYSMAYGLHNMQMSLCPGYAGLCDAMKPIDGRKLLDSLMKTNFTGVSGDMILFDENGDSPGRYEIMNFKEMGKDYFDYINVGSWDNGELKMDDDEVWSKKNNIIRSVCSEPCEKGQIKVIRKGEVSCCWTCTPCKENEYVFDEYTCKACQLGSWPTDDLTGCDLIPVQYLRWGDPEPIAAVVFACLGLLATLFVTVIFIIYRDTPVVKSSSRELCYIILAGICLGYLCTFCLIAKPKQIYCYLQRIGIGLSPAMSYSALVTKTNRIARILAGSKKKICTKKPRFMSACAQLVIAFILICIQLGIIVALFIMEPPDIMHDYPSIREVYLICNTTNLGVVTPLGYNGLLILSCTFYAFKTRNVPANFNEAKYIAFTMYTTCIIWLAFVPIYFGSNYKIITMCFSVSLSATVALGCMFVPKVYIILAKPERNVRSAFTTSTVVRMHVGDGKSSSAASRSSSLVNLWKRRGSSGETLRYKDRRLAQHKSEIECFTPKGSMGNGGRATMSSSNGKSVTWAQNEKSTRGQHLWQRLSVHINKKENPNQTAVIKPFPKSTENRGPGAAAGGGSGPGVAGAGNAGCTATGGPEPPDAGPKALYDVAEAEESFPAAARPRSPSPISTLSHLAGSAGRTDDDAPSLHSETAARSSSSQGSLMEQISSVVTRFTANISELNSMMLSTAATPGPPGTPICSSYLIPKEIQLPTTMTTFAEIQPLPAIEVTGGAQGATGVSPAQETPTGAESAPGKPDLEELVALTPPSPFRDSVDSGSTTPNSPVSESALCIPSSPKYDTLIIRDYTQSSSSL

[10] = molecular target: Metabotropic glutamate receptor 7 (Rattus norvegicus) (UniProt P35400); experiment: Antagonist activity at rat mGluR7 receptor expressed in HEK293 cells by IP-1 HTRF assay; assay type: functional, cell-based
[11] = molecular target: Metabotropic glutamate receptor 2 (Rattus norvegicus) (UniProt P31421); experiment: Antagonist activity at rat mGluR2 receptor expressed in HEK293 cells by IP-1 HTRF assay; assay type: functional, cell-based
[12] = molecular target: Metabotropic glutamate receptor 5 (Rattus norvegicus) (UniProt P31424); experiment: Agonist activity at rat mGluR5 receptor expressed in HEK293 cells at 100 uM by IP-1 HTRF assay; assay type: functional, cell-based
[13] = molecular target: Metabotropic glutamate receptor 6 (Rattus norvegicus) (UniProt P35349); experiment: Antagonist activity at rat mGluR6 receptor expressed in HEK293 cells by IP-1 HTRF assay; assay type: functional, cell-based
[14] = molecular target: Metabotropic glutamate receptor 2 (Rattus norvegicus) (UniProt P31421); experiment: Agonist activity at rat mGluR2 receptor expressed in HEK293 cells at 100 uM by IP-1 HTRF assay; assay type: functional, cell-based
[15] = molecular target: Metabotropic glutamate receptor 4 (Rattus norvegicus) (UniProt P31423); experiment: Agonist activity at rat mGluR4 receptor expressed in HEK293 cells at 100 uM by IP-1 HTRF assay; assay type: functional, cell-based
[16] = molecular target: Metabotropic glutamate receptor 8 (Rattus norvegicus) (UniProt P70579); experiment: Agonist activity at rat mGluR8 receptor expressed in HEK293 cells at 100 uM by IP-1 HTRF assay; assay type: functional, cell-based
[17] = molecular target: Metabotropic glutamate receptor 3 (Rattus norvegicus, UniProt P31422); experiment: Agonist activity at rat mGluR3 receptor expressed in HEK293 cells by IP-1 HTRF assay; assay type: functional, cell-based
[18] = molecular target: Metabotropic glutamate receptor 2 (Rattus norvegicus, UniProt P31421); experiment: Agonist activity at rat mGluR2 receptor expressed in HEK293 cells by IP-1 HTRF assay; assay type: functional, cell-based; settings: read-out: EC50
[19] = molecular target: Metabotropic glutamate receptor 3 (Rattus norvegicus) (UniProt P31422); experiment: Agonist activity at rat mGluR3 receptor expressed in HEK293 cells at 3 uM by IP-1 HTRF assay; assay type: functional, cell-based; settings: filed as agonist
[20] = molecular target: Metabotropic glutamate receptor 5 (Rattus norvegicus, UniProt P31424); experiment: Agonist activity at rat mGluR5 receptor expressed in HEK293 cells by IP-1 HTRF assay; assay type: functional, cell-based
Rattus norvegicus [21] = species: Rattus norvegicus; experiment: Selectivity ratio of EC50 for agonist activity at rat mGluR8 receptor expressed in HEK293 cells to EC50 for agonist activity at rat mGluR2 receptor expressed in HEK293 cells; assay type: cell-based
Rattus norvegicus [22] = species: Rattus norvegicus; experiment: Selectivity ratio of EC50 for agonist activity at rat mGluR7 receptor expressed in HEK293 cells to EC50 for agonist activity at rat mGluR2 receptor expressed in HEK293 cells; assay type: cell-based
Rattus norvegicus [23] = species: Rattus norvegicus; experiment: Selectivity ratio of EC50 for agonist activity at rat mGluR3 receptor expressed in HEK293 cells to EC50 for agonist activity at rat mGluR2 receptor expressed in HEK293 cells; assay type: cell-based
Rattus norvegicus [24] = species: Rattus norvegicus; experiment: Selectivity ratio of EC50 for agonist activity at rat mGluR4 receptor expressed in HEK293 cells to EC50 for agonist activity at rat mGluR2 receptor expressed in HEK293 cells; assay type: cell-based
Rattus norvegicus [25] = species: Rattus norvegicus; experiment: Selectivity ratio of EC50 for agonist activity at rat mGluR5 receptor expressed in HEK293 cells to EC50 for agonist activity at rat mGluR2 receptor expressed in HEK293 cells; assay type: cell-based
Rattus norvegicus [26] = species: Rattus norvegicus; experiment: Selectivity ratio of EC50 for agonist activity at rat mGluR1 receptor expressed in HEK293 cells to EC50 for agonist activity at rat mGluR2 receptor expressed in HEK293 cells; assay type: cell-based
[27] = molecular target: Metabotropic glutamate receptor 7 (Rattus norvegicus) (UniProt P35400); experiment: Agonist activity at rat mGluR7 receptor expressed in HEK293 cells at 30 uM by IP-1 HTRF assay; assay type: functional, cell-based
[28] = molecular target: Metabotropic glutamate receptor 1 (Rattus norvegicus, UniProt P23385); experiment: Agonist activity at rat mGluR1 receptor expressed in HEK293 cells by IP-1 HTRF assay; assay type: functional, cell-based
Rattus norvegicus [29] = species: Rattus norvegicus; experiment: Selectivity ratio of EC50 for agonist activity at rat mGluR6 receptor expressed in HEK293 cells to EC50 for agonist activity at rat mGluR2 receptor expressed in HEK293 cells; assay type: cell-based
[30] = molecular target: Metabotropic glutamate receptor 8 (Rattus norvegicus) (UniProt P70579); experiment: Agonist activity at rat mGluR8 receptor expressed in HEK293 cells at 30 uM by IP-1 HTRF assay; assay type: functional, cell-based
[31] = molecular target: Metabotropic glutamate receptor 6 (Rattus norvegicus, UniProt P35349); experiment: Agonist activity at rat mGluR6 receptor expressed in HEK293 cells by IP-1 HTRF assay; assay type: functional, cell-based
[32] = molecular target: Metabotropic glutamate receptor 4 (Rattus norvegicus) (UniProt P31423); experiment: Agonist activity at rat mGluR4 receptor expressed in HEK293 cells at 30 uM by IP-1 HTRF assay; assay type: functional, cell-based
[33] = molecular target: Metabotropic glutamate receptor 2 (Homo sapiens, UniProt Q14416); experiment: Agonist activity at mGluR2 receptor (unknown origin); assay type: functional

N[C@@H](C[C@H]1C[C@@H]1C(=O)O)C(=O)O
Activity [1]: inactive | inhibition [2]: inactive | Activity [3]: inactive | inhibition [4]: inactive | Activity [5]: inactive | inhibition [6]: inactive | Activity [7]: inactive | inhibition [8]: inactive | inhibition [9]: inactive | inhibition [10]: inactive | inhibition [11]: inactive | Activity [12]: inactive | inhibition [13]: inactive | Activity [14]: inactive | Activity [15]: inactive | Activity [16]: inactive

N[C@@]1(C(=O)O)CO[C@H]2[C@H](C(=O)O)[C@H]21 [LY-379268]
EC50 [17]: 9 nM | EC50 [18]: 0.6 nM | Activity [19]: 100%

C[C@@]1(C(=O)O)C[C@H]1[C@H](N)C(=O)O
EC50 [17]: 1220 nM | EC50 ([20]; read-out: EC50): 10600 nM | EC50 ([20]; read-out: pEC50 (converted)): 11200 nM | inhibition [2]: inactive | Ratio EC50 (Rattus norvegicus [21]): > 25 | Ratio EC50 (Rattus norvegicus [22]): > 25 | inhibition [4]: inactive | Ratio EC50 (Rattus norvegicus [23]): 15 | Ratio EC50 (Rattus norvegicus [24]): > 25 | EC50 [18]: 82 nM | inhibition [6]: inactive | inhibition [8]: inactive | Ratio EC50 (Rattus norvegicus [25]): > 60 | Ratio EC50 (Rattus norvegicus [26]): > 60 | Activity [27]: inactive | inhibition [9]: inactive | EC50 ([28]; read-out: EC50): 5210 nM | EC50 ([28]; read-out: pEC50 (converted)): 5130 nM | inhibition [10]: inactive | Ratio EC50 (Rattus norvegicus [29]): > 25 | Activity [30]: inactive | inhibition [11]: inactive | inhibition [13]: inactive | EC50 ([31]; read-out: EC50): 2180 nM | EC50 ([31]; read-out: pEC50 (converted)): 2140 nM | Activity [32]: inactive

N[C@H](C(=O)O)[C@@H]1C[C@H]1C(=O)O
EC50 [33]: 300 nM
